# Results taken from ChEMBL document CHEMBL3885881, “DrugMatrix”.
# Species: Rattus norvegicus
# Assay: DrugMatrix - Regimen: Daily Repeat
# Type: toxicity, organism-based, Sprague-Dawley
# Design: regimen Daily Repeat, gender Male, age 6-8 weeks
# Conditions: in vivo, po, route oral GAVAGE, vehicle .5 % CMC; for BASOPHIL / EOSINOPHIL / ERYTHROCYTE COUNT / HEMATOCRIT / HEMOGLOBIN / LEUKOCYTE COUNT / LYMPHOCYTE / MEAN CORPUSCULAR HEMOGLOBIN / MEAN CORPUSCULAR HEMOGLOBIN CONCENTRATION / MEAN CORPUSCULAR VOLUME / MONOCYTE / NEUTROPHIL / PLATELET COUNT: tissue Blood; for ALANINE AMINOTRANSFERASE / ALBUMIN / ALKALINE PHOSPHATASE / ASPARTATE AMINOTRANSFERASE / BLOOD UREA NITROGEN / CHLORIDE / CHOLESTEROL / CREATINE PHOSPHOKINASE / CREATININE / GLUCOSE / PHOSPHORUS / POTASSIUM / SODIUM / TOTAL BILIRUBIN / TOTAL PROTEIN: tissue Plasma
# [1] = 0 mg/kg, 72 h, dose level Control, time 3 day
# [2] = 0 mg/kg, 120 h, dose level Control, time 5 day
# [3] = 75 mg/kg, 72 h, dose level High, time 3 day
structure (smiles),measurement,setting,value
COc1ccc(C2C(=O)c3ccccc3C2=O)cc1 [ANISINDIONE],BASOPHIL,[1],0%
same,EOSINOPHIL,[1],0%
same,ERYTHROCYTE COUNT,[1],6.19 x10E6/uL
same,HEMATOCRIT,[1],36.94%
same,HEMOGLOBIN,[1],14.58 G/DL
same,LEUKOCYTE COUNT,[1],11.54 x10E3/uL
same,LYMPHOCYTE,[1],84.8%
same,MEAN CORPUSCULAR HEMOGLOBIN,[1],23.58 pg
same,MEAN CORPUSCULAR HEMOGLOBIN CONCENTRATION,[1],39.44 G/DL
same,MEAN CORPUSCULAR VOLUME,[1],59.76 fL
same,MONOCYTE,[1],1.4%
same,NEUTROPHIL,[1],13.8%
same,PLATELET COUNT,[1],1068.8 x10E3/uL
same,ALANINE AMINOTRANSFERASE,[1],38.17 u/L
same,ALBUMIN,[1],3.88 G/DL
same,ALKALINE PHOSPHATASE,[1],391.33 u/L
same,ASPARTATE AMINOTRANSFERASE,[1],69.83 u/L
same,BLOOD UREA NITROGEN,[1],15 mg/dL
same,CHLORIDE,[1],104.17 MEQ/L
same,CHOLESTEROL,[1],72.17 mg/dL
same,CREATINE PHOSPHOKINASE,[1],174.33 u/L
same,CREATININE,[1],0.58 mg/dL
same,GLUCOSE,[1],192.67 mg/dL
same,PHOSPHORUS,[1],10.52 mg/dL
same,POTASSIUM,[1],6.8 MEQ/L
same,SODIUM,[1],149.67 MEQ/L
same,TOTAL BILIRUBIN,[1],0.78 mg/dL
same,TOTAL PROTEIN,[1],6.28 G/DL
same,BASOPHIL,[2],0%
same,EOSINOPHIL,[2],0.17%
same,ERYTHROCYTE COUNT,[2],6.72 x10E6/uL
same,HEMATOCRIT,[2],40.02%
same,HEMOGLOBIN,[2],15.83 G/DL
same,LEUKOCYTE COUNT,[2],9.5 x10E3/uL
same,LYMPHOCYTE,[2],87.17%
same,MEAN CORPUSCULAR HEMOGLOBIN,[2],23.57 pg
same,MEAN CORPUSCULAR HEMOGLOBIN CONCENTRATION,[2],39.62 G/DL
same,MEAN CORPUSCULAR VOLUME,[2],59.55 fL
same,MONOCYTE,[2],1.67%
same,NEUTROPHIL,[2],11%
same,PLATELET COUNT,[2],1053.67 x10E3/uL
same,ALANINE AMINOTRANSFERASE,[2],26.33 u/L
same,ALBUMIN,[2],4.02 G/DL
same,ALKALINE PHOSPHATASE,[2],316.67 u/L
same,ASPARTATE AMINOTRANSFERASE,[2],61.33 u/L
same,BLOOD UREA NITROGEN,[2],18.67 mg/dL
same,CHLORIDE,[2],108 MEQ/L
same,CHOLESTEROL,[2],65.17 mg/dL
same,CREATINE PHOSPHOKINASE,[2],161.17 u/L
same,CREATININE,[2],0.75 mg/dL
same,GLUCOSE,[2],177.33 mg/dL
same,PHOSPHORUS,[2],9.72 mg/dL
same,POTASSIUM,[2],6.18 MEQ/L
same,SODIUM,[2],150.5 MEQ/L
same,TOTAL BILIRUBIN,[2],0.68 mg/dL
same,TOTAL PROTEIN,[2],6.55 G/DL
same,BASOPHIL,[3],0%
same,EOSINOPHIL,[3],0.33%
same,ERYTHROCYTE COUNT,[3],6.08 x10E6/uL
same,HEMATOCRIT,[3],36.9%
same,HEMOGLOBIN,[3],14.87 G/DL
same,LEUKOCYTE COUNT,[3],12.97 x10E3/uL
same,LYMPHOCYTE,[3],73.67%
same,MEAN CORPUSCULAR HEMOGLOBIN,[3],24.43 pg
same,MEAN CORPUSCULAR HEMOGLOBIN CONCENTRATION,[3],40.3 G/DL
same,MEAN CORPUSCULAR VOLUME,[3],60.63 fL
same,MONOCYTE,[3],4.67%
same,NEUTROPHIL,[3],21.33%
same,PLATELET COUNT,[3],1074.33 x10E3/uL
same,ALANINE AMINOTRANSFERASE,[3],32.33 u/L
same,ALBUMIN,[3],3.7 G/DL
same,ALKALINE PHOSPHATASE,[3],312.67 u/L
same,ASPARTATE AMINOTRANSFERASE,[3],70.67 u/L
same,BLOOD UREA NITROGEN,[3],16.67 mg/dL
same,CHLORIDE,[3],102.67 MEQ/L
same,CHOLESTEROL,[3],62.67 mg/dL
same,CREATINE PHOSPHOKINASE,[3],163 u/L
same,CREATININE,[3],0.7 mg/dL
same,GLUCOSE,[3],161.33 mg/dL
same,PHOSPHORUS,[3],10.17 mg/dL
same,POTASSIUM,[3],6.4 MEQ/L
same,SODIUM,[3],147 MEQ/L
same,TOTAL BILIRUBIN,[3],0.57 mg/dL
same,TOTAL PROTEIN,[3],5.87 G/DL
